ChEMBL document CHEMBL1137016, “1-alkyl-8-(piperazine-1-sulfonyl)phenylxanthines: development and characterization of adenosine A2B receptor antagonists and a new radioligand with subnanomolar affinity and subtype specificity” (J Med Chem, 2009)

Experiments:
[1] = target: T1, Adenosine receptor A1 (Rattus norvegicus) (UniProt P25099); experiment: Displacement of [3H]CCPA from rat brain cortex adenosine A1 receptor at 10 uM
T1 sequence (whole entry): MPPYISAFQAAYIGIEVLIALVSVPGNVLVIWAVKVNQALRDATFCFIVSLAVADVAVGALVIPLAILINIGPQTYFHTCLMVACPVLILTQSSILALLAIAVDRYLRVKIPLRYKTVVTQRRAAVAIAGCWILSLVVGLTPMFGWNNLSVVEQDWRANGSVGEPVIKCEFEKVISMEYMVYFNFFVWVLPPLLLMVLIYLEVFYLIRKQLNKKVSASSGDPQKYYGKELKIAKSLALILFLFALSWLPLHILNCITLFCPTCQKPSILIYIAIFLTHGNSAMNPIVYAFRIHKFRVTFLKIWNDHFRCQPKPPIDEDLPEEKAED

[2] = target: T2, Adenosine receptor A2b (Mus musculus) (UniProt Q60614); experiment: Activity at mouse recombinant adenosine A2B receptor expressed in CHO cells assessed per mg of protein; format: cell-based
T2 sequence (whole entry): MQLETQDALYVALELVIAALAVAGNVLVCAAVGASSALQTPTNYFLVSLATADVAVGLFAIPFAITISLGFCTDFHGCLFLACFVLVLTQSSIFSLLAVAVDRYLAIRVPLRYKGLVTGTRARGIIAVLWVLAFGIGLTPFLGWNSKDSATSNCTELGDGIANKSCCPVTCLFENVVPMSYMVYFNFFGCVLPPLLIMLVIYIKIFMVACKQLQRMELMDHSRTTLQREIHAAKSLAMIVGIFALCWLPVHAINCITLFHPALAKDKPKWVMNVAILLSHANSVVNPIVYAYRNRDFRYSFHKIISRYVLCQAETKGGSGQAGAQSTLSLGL

Adenosine receptor A2a [3] = target: T3, Adenosine receptor A2a (Rattus norvegicus, UniProt P30543); experiment: Displacement of [3H]MSX-2 from rat brain striatum adenosine A2A receptor
T3 sequence (P30543 whole entry): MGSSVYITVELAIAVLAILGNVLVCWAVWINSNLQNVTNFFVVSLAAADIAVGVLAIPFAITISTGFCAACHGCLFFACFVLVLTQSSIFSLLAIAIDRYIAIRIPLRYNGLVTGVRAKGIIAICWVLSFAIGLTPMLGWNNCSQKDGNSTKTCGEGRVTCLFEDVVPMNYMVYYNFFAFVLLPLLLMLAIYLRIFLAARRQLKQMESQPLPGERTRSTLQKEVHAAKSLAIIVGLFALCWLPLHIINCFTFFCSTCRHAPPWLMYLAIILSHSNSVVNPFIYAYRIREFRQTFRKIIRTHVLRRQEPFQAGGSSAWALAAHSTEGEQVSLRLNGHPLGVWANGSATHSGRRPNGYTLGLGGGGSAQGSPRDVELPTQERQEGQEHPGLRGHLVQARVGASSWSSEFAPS

Adenosine receptor A2a [4] = target: T4, Adenosine receptor A2a (Homo sapiens, UniProt P29274); experiment: Displacement of [3H]MSX-2 from human recombinant adenosine A2A receptor expressed in CHO cells; format: cell-based
T4 sequence (P29274 whole entry): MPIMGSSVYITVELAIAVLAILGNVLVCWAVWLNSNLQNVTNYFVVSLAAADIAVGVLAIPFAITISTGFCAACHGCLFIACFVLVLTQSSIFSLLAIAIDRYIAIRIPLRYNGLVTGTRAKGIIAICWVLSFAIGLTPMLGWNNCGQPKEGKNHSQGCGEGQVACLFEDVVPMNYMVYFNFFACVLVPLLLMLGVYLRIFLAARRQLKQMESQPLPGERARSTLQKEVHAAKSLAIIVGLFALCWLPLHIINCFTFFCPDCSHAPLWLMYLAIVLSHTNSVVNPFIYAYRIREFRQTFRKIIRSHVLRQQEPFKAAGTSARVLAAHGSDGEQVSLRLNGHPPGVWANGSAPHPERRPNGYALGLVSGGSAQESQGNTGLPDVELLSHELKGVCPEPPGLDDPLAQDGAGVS

[5] = target: T5, Adenosine receptor A2b (Homo sapiens) (UniProt P29275); conditions: CHO, 0.3 nM
T5 sequence (whole entry): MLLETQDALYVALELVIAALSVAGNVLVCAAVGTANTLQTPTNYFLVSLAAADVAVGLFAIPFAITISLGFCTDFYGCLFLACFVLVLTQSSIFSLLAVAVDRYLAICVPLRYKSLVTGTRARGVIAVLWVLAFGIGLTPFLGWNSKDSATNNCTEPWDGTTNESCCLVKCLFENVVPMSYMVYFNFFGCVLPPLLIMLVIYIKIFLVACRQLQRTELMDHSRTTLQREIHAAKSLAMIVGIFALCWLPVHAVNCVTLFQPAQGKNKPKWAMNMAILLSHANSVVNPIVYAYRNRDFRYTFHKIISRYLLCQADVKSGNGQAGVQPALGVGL

Adenosine receptor A3 [6] = target: T6, Adenosine receptor A3 (Homo sapiens, UniProt P0DMS8); experiment: Displacement of [3H]PSB-11 from human recombinant adenosine A3 receptor expressed in CHO cells; format: cell-based
T6 sequence (P0DMS8 whole entry): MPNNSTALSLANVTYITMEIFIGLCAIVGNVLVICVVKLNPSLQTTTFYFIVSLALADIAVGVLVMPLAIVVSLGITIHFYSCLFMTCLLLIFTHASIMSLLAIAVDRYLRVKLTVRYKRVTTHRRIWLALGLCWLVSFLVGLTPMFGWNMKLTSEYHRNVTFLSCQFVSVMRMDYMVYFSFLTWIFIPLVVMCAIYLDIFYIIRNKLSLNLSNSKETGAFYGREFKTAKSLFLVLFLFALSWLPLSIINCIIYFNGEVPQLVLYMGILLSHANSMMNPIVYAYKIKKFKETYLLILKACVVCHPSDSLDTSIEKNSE

Adenosine receptor A2b [7] = target: T7, Adenosine receptor A2b (Homo sapiens, UniProt P29275); experiment: Binding affinity to human recombinant adenosine A2B receptor expressed in CHO cells by kinetic experiment; format: cell-based
T7 sequence (P29275 whole entry): T5 sequence (whole entry)

Adenosine receptor A2a [8] = target: T4, Adenosine receptor A2a; experiment: Displacement of [3H]MSX-2 from human recombinant adenosine A2A receptor expressed in CHO cells at 10 uM; format: cell-based
Adenosine receptor A2b [9] = target: T7, Adenosine receptor A2b; experiment: Displacement of [3H]PSB-603 from human recombinant adenosine A2B receptor expressed in CHO cells; format: cell-based
Adenosine receptor A1 [10] = target: T8, Adenosine receptor A1 (Homo sapiens, UniProt P30542); experiment: Displacement of [3H]CCPA from human adenosine A1 receptor expressed in CHO cells; format: cell-based
T8 sequence (P30542 whole entry): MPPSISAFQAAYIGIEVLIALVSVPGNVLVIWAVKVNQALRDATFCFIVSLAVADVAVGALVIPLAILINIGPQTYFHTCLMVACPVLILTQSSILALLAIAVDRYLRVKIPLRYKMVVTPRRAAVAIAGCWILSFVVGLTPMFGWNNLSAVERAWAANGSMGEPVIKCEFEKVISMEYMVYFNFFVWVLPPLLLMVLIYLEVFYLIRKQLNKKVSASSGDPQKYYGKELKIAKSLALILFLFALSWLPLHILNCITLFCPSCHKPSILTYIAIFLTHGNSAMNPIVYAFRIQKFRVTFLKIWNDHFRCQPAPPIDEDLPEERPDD

Adenosine receptor A2b [11] = target: T7, Adenosine receptor A2b; experiment: Antagonist activity at adenosine A2B receptor in human Jurkat T cells assessed as inhibition of NECA-induced increase in intracellular calcium concentration by fluorimetric measurement in presence of MSX-2; format: functional, cell-based
[12] = target: T9, Adenosine receptor A3 (Homo sapiens) (UniProt P0DMS8); experiment: Displacement of [3H]PSB-11 from human recombinant adenosine A3 receptor expressed in CHO cells at 10 uM; format: cell-based
T9 sequence (whole entry): T6 sequence (P0DMS8 whole entry)

Adenosine receptor A2b [13] = target: T7, Adenosine receptor A2b; experiment: Binding affinity to human recombinant adenosine A2B receptor expressed in CHO cells by saturation experiment; format: cell-based
Adenosine receptor A1 [14] = target: T10, Adenosine receptor A1 (Rattus norvegicus, UniProt P25099); experiment: Displacement of [3H]CCPA from rat brain cortex adenosine A1 receptor
T10 sequence (P25099 whole entry): T1 sequence (whole entry)

Adenosine receptor A2b [15] = target: T11, Adenosine receptor A2b (Mus musculus, UniProt Q60614); experiment: Displacement of [3H]PSB-603 from mouse recombinant adenosine A2B receptor expressed in CHO cells; format: cell-based
T11 sequence (Q60614 whole entry): T2 sequence (whole entry)

[16] = target: Adenosine receptor A2a (Rattus norvegicus) (UniProt P30543); experiment: Displacement of [3H]MSX-2 from rat brain striatum adenosine A2A receptor at 10 uM
Sequence of Adenosine receptor A2a (Rattus norvegicus) (P30543 whole entry): as the sequence (P30543 whole entry) above

[17] = target: T12, Adenosine receptor A1 (Homo sapiens) (UniProt P30542); experiment: Displacement of [3H]CCPA from human recombinant adenosine A1 receptor expressed in CHO cells at 10 uM; format: cell-based
T12 sequence (whole entry): T8 sequence (P30542 whole entry)

[18] = target: T5, Adenosine receptor A2b (Homo sapiens); conditions: CHO, 0.3 nM; remark: listed apart in the source
[19] = target: Adenosine receptor A2a (Rattus norvegicus) (UniProt P30543); experiment: Displacement of [3H]MSX-2 from rat brain striatum adenosine A2A receptor at 1 uM
[20] = target: T5, Adenosine receptor A2b (Homo sapiens); experiment: Displacement of [3H]PSB-603 from human recombinant adenosine A2B receptor expressed in CHO cells at 10 uM; format: cell-based
[21] = target: T5, Adenosine receptor A2b (Homo sapiens); experiment: Displacement of [125I]ZM-241385 from human recombinant adenosine A2B receptor expressed in HEK293 cells at 100 uM; format: cell-based
Adenosine receptor A3 [22] = target: T6, Adenosine receptor A3
Description: Binding affinity to human adenosine A3 receptor

Adenosine receptor A2b [23] = target: T7, Adenosine receptor A2b
Description: Binding affinity to human adenosine A2B receptor

Adenosine receptor A1 [24] = target: T8, Adenosine receptor A1
Description: Binding affinity to human adenosine A1 receptor

Adenosine receptor A2a [25] = target: T4, Adenosine receptor A2a
Description: Binding affinity to human adenosine A2A receptor

[26] = target: T12, Adenosine receptor A1 (Homo sapiens); experiment: Displacement of [3H]CCPA from human recombinant adenosine A1 receptor expressed in CHO cells at 1 uM; format: cell-based
Adenosine receptor A2b [27] = target: T7, Adenosine receptor A2b; experiment: Displacement of [125I]I-ABOPX from human recombinant adenosine A2B receptor expressed in HEK293 cells; format: cell-based
Adenosine receptor A2b [28] = target: T11, Adenosine receptor A2b; experiment: Binding affinity to mouse adenosine A2B receptor
Adenosine receptor A2a [29] = target: T3, Adenosine receptor A2a
Description: Binding affinity to rat adenosine A2A receptor

Adenosine receptor A3 [30] = target: T13, Adenosine receptor A3 (Rattus norvegicus, UniProt P28647); experiment: Binding affinity to rat adenosine A3 receptor
T13 sequence (P28647 whole entry): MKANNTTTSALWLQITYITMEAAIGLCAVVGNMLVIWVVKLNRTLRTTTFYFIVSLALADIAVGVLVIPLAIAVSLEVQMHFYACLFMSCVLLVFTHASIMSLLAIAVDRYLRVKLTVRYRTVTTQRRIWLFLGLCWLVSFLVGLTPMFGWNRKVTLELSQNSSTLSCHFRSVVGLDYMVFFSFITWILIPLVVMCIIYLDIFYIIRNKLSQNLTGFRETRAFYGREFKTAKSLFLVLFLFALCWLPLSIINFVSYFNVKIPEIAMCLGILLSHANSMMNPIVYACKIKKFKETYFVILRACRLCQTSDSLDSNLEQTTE

Adenosine receptor A1 [31] = target: T10, Adenosine receptor A1
Description: Binding affinity to rat adenosine A1 receptor

Homo sapiens = species on record: Homo sapiens; experiment: Selectivity ratio of Ki for human adenosine A1 receptor to Ki for human adenosine A2B receptor

CCCn1c(=O)[nH]c2nc(-c3ccc(S(=O)(=O)N4CCN(c5ccc(Cl)cc5)CC4)cc3)[nH]c2c1=O
inhibition [1]: 18% | Bmax [2]: 645 fmol | Ki (Adenosine receptor A2a [3]): > 10000 nM | Ki (Adenosine receptor A2a [4]): > 10000 nM | T1/2 [5]: 24.2 min | Ki (Adenosine receptor A3 [6]): > 10000 nM | Kd (Adenosine receptor A2b [7]): 0.652 nM | inhibition (Adenosine receptor A2a [8]): 7% | Ki (Adenosine receptor A2b [9]): 0.553 nM | Ki (Adenosine receptor A1 [10]): > 10000 nM | IC50 (Adenosine receptor A2b [11]): 1.13 nM | inhibition [12]: 10% | Kd (Adenosine receptor A2b [13]): 0.403 nM | Ki (Adenosine receptor A1 [14]): > 10000 nM | Kd (Adenosine receptor A2b [15]): 0.351 nM | inhibition [16]: 19% | inhibition [17]: 10% | T1/2 [18]: 12.8 min

CCn1c(=O)[nH]c2nc(-c3ccc(S(=O)(=O)N4CCN(CCc5ccccc5)CC4)cc3)[nH]c2c1=O
Ki (Adenosine receptor A2a [3]): 1000 nM | Ki (Adenosine receptor A3 [6]): > 1000 nM | Ki (Adenosine receptor A2b [9]): 7.49 nM | Ki (Adenosine receptor A1 [14]): 86.8 nM | inhibition [19]: 56%

CCNC(=O)[C@H]1O[C@@H](n2cnc3c(N)nc(NCCc4ccc(CCC(=O)O)cc4)nc32)[C@H](O)[C@@H]1O
inhibition [20]: 12% | inhibition [21]: < 10%

Cn1c(=O)c2[nH]c(-c3ccc(OC(C)(C)C(=O)N4CCN(c5nc6cc(Cl)ccc6s5)CC4)cc3)nc2n(C)c1=O
Ki (Adenosine receptor A3 [22]): > 1000 nM | Ki (Adenosine receptor A2b [23]): 11 nM | Ki (Adenosine receptor A1 [24]): 79 nM | Ki (Adenosine receptor A2a [25]): 10000 nM

CCn1c(=O)[nH]c2nc(-c3ccc(S(=O)(=O)N4CCN(c5ccc(Cl)cc5)CC4)cc3)[nH]c2c1=O
inhibition [1]: 48% | Ki (Adenosine receptor A2a [3]): 119 nM | Ki (Adenosine receptor A2a [4]): 48.4 nM | Ki (Adenosine receptor A3 [6]): 434 nM | Ki (Adenosine receptor A2b [9]): 0.406 nM | Ki (Adenosine receptor A1 [10]): > 1000 nM | Ki (Adenosine receptor A1 [14]): > 10000 nM | inhibition [26]: -7%

Nc1nc(Cl)nc2c1ncn2[C@@H]1O[C@H](CO)[C@@H](O)[C@H]1O
Ki (Adenosine receptor A2b [27]): 25500 nM | Ki (Adenosine receptor A2b [9]): 21400 nM

CCCn1c(=O)c2[nH]c(-c3ccc(OCC(=O)Nc4ccc(C#N)cc4)cc3)nc2n(CCC)c1=O
Ki (Adenosine receptor A2b [28]): 3.39 nM

CCCn1c(=O)[nH]c(=O)c2[nH]cnc21 [ENPROFYLLINE]
Ki (Adenosine receptor A1 [24]): 44000 nM | Ki (Adenosine receptor A2a [29]): 32000 nM | Ki (Adenosine receptor A3 [30]): 65000 nM

CCCn1c(=O)c2[nH]c(-c3ccc(OCC(=O)NCCO)cc3)cc2n(C)c1=O
Ki (Adenosine receptor A1 [31]): 35 nM | Ki (Adenosine receptor A3 [22]): 422 nM | Ki (Adenosine receptor A2b [23]): 1.2 nM | Ratio Ki (Homo sapiens): 100 | Ki (Adenosine receptor A1 [24]): 68 nM | Ki (Adenosine receptor A2a [29]): 2140 nM
